Measured values published in paper PMC12406664, “New derivatives of 6-nitrocoumarin-3-thiosemicarbazone exhibit improved antiparasitic activity in the placenta against Trypanosoma cruzi and Toxoplasma gondii” (Antimicrobial Agents and Chemotherapy, 2025).

Legend:
[1] = vs. Ag/AgCl; cited from earlier work
[2] = tested on: T. cruzi (Dm28 strain) in HPE; test: T. cruzi DNA load in infected human placental explants (HPE) by real-time qPCR; format: cell-based, Trypanosoma cruzi; settings: IC50 concentration
Excerpt: Cells or HPE were exposed to parasites. […] The following treatment conditions were used in both infection models.

[3] = tested on: human placental explants (HPE); test: Histopathology of uninfected HPE exposed to the compounds alone; settings: explants incubated only with the compound, 24 h, IC50 concentration
Method: The HPE was fixed in 10% formaldehyde in 0.1 M phosphate buffer (pH 7.3) for 24 h, dehydrated in alcohol, clarified in xylene, embedded in paraffin, and sectioned at 3 µm. Paraffin histological sections were stained with hematoxylin-eosin for routine histological analysis, Picro Sirius red, and trichromic Masson for collagen histochemistry. Sections for the histological analysis were observed under an optical microscope (Leica DM500) and images were captured with a Leica ICC50 W camera ([7], [91]).

[4] = tested on: T. cruzi trypomastigotes, Dm28 strain; settings: read-out: IC50 T. cruzi; cited from earlier work
[5] = Cytotoxicity on cells (resazurin), EA.hy926; format: cell-based; settings: human, EA.hy926 endothelial cells
Excerpt: (§1) Triton X-100 was used as a positive control, and untreated cells served as a negative control. In addition, the maximum concentration of DMSO was used as a control for the method. […] The obtained values were expressed as IC50([88]).

[6] = tested on: HPE exposed to T. cruzi trypomastigotes; test: Histopathology of HPE infected with T. cruzi; format: cell-based, human; settings: co-incubation, IC50 concentration
[7] = tested on: T. cruzi (Dm28 strain) in BeWo cells; test: Infection of BeWo cells by T. cruzi, infected cells counted by fluorescence microscopy; format: cell-based, Trypanosoma cruzi; settings: compound at IC50, untreated control 24 ± 3
Method: The effect of the compounds on the infection of BeWo trophoblast cells by T. gondii and T. cruzi was assessed. The DNA of T. gondii and T. cruzi was quantified in infected BeWo cells treated for 24 hours under two conditions: co-incubation and post-infection treatment. […] Fluorescence microscopy was employed to quantify the number of infected cells. The resulting images were analyzed using ImageJ software to count both infected and uninfected cells.
For the microscopic analysis of BeWo cells infected with T. cruzi, the cells were washed with PBS to remove the supernatant, fixed with 90% cold methanol, rewashed with PBS, and incubated for 5 minutes with 1 µg/mL—1 4,6-diamidino-2-phenylindole (DAPI) (Molecular Probes). To analyze BeWo cells infected with T. gondii, cells were fixed with 90% cold methanol, washed with PBS containing 0.05% Tween, and blocked using 3% BSA for 1 hour at 37°C. Then, they were incubated with the primary monoclonal antibody Toxoplasma gondii (TP3): sc-52255 at a dilution of 1:500 with 1% BSA overnight at 4°C. […] T. cruzi amastigotes were identified by their morphology, including nuclear size and the presence of a kinetoplast, and were analyzed and quantified using ImageJ. At least 500 cells per condition were analyzed, and infected and non-infected cells were counted for every 100 cells ([35], [70]). […]

[8] = tested on: T. cruzi trypomastigotes, Dm28 strain; test: Resazurin viability assay on free T. cruzi trypomastigotes; settings: parasite T. cruzi
Method: The reduction of resazurin sodium salt was used to determine the trypanocidal and toxoplasmicidal activity of the 6-nitrocoumarin-thiosemicarbazone hybrids 1–8. For this, treatment with the compounds was carried out for 24 h at a concentration of 100 µM.
NFX was used as a positive control for T. cruzi, and PMN was used for T. gondii. Untreated parasites served as a negative control. […] Subsequently, parasites with their respective conditions were transferred to a 96-well white fluorescence reading plate, adding resazurin at a final concentration of […] with 0.8 mM phenazine. The plate was incubated for 3 hours at 37°C in a humidified atmosphere with 5% CO2, and fluorescence measurements were taken using a microplate reader (Thermo Scientific Varioskan Flash) at excitation wavelengths of 560 nm and emission wavelengths of 590 nm.

[9] = Cytotoxicity on cells (resazurin), BeWo; format: cell-based; settings: human, BeWo trophoblast cells
Excerpt: as §1

In the case of `CC1CS(=O)(=O)CCN1/N=C/c1ccc([N+](=O)[O-])o1` (stereo not shown) [NFX, nifurtimox, reference compound], the “E(pIIa)” value [1] is listed as −0.70 V, the “E(pIIc)” value [1] is listed as −0.75 V and the “effect on parasite DNA load” value ([2]; co-incubation) is listed as “managed to reduce the parasitic load”. For the same compound, the “effect on parasite DNA load” value ([2]; post-infection treatment) was “no statistically significant activity”, the “tissue damage caused by the compound itself in HPE” value [3] was “caused tissue damage” and the IC50 [4] was 10 ± 0.4 µM. The CC50 at 24 h [5] was 348.5 ± 1.2 µM, the “tissue damage in infected HPE (histopathology)” value [6] was “caused tissue damage” and the “Infected cells (%)” value ([7]; co-incubation 24 h) was 2 ± 1%. The “Infected cells (%)” value ([7]; post-infection treatment 24 h) was 23 ± 4%, the “SI = BeWo CC50/parasite IC50” value [8] was >30 and the “SI = EA.hy926 CC50/parasite IC50” value [8] was 34.9. The CC50 at 24 h [9] was > 300 µM.
